Test results published in the CombiSolv-Exp solvation set (Vermeire and Green 2021).
One block for each compound: values may come before it.

Assay: solvent given as SMILES
[1] = in CCCCCCCCC=CCCCCCCCC(=O)OCC(COC(=O)CCCCCCCC=CCCCCCCCC)OC(=O)CCCCCCCC=CCCCCCCCC

Structure (SMILES): c1ccc2c(c1)ccc1ccccc12
solvation free energy, 298 K (in C1CCOC1): -11.5 kcal/mol | solvation free energy, 298 K (in C1COCCO1): -11.3 kcal/mol | solvation free energy, 298 K (in CC(=O)N(C)C): -11.4 kcal/mol | solvation free energy, 298 K (in CC(C)(C)O): -9.55 kcal/mol | solvation free energy, 298 K (in CC(C)=O): -11.3 kcal/mol | solvation free energy, 298 K (in CC(C)CC(C)(C)C): -9.75 kcal/mol | solvation free energy, 298 K (in CC(C)CC(C)O): -9.7 kcal/mol | solvation free energy, 298 K (in CC(C)CCO): -9.73 kcal/mol | solvation free energy, 298 K (in CC(C)CO): -9.56 kcal/mol | solvation free energy, 298 K (in CC(C)O): -9.64 kcal/mol | solvation free energy, 298 K (in CCC(C)(C)O): -9.84 kcal/mol | solvation free energy, 298 K (in CCC(C)O): -9.64 kcal/mol | solvation free energy, 298 K (in CCCC(C)CO): -9.72 kcal/mol | solvation free energy, 298 K (in CCCC(C)O): -9.79 kcal/mol | solvation free energy, 298 K (in CCCCC(CC)CO): -9.87 kcal/mol | solvation free energy, 298 K (in CCCCCC): -10 kcal/mol | solvation free energy, 298 K (in CCCCCCC): -10.1 kcal/mol | solvation free energy, 298 K (in CCCCCCCC): -10.1 kcal/mol | solvation free energy, 298 K [1]: -10.6 kcal/mol | solvation free energy, 298 K (in CCCCCCCCCC): -10.1 kcal/mol | solvation free energy, 298 K (in CCCCCCCCO): -10.3 kcal/mol | solvation free energy, 298 K (in CCCCCCCO): -10.1 kcal/mol | solvation free energy, 298 K (in CCCCCO): -10 kcal/mol | solvation free energy, 298 K (in CCCCO): -9.89 kcal/mol | solvation free energy, 298 K (in CCCCOC(C)=O): -11 kcal/mol | solvation free energy, 298 K (in CCCCOCCCC): -10.5 kcal/mol | solvation free energy, 298 K (in CCCO): -9.96 kcal/mol | solvation free energy, 298 K (in CCO): -10 kcal/mol | solvation free energy, 298 K (in CCOC(C)=O): -11.1 kcal/mol | solvation free energy, 298 K (in CN1CCCC1=O): -11.5 kcal/mol | solvation free energy, 298 K (in CO): -9.88 kcal/mol | solvation free energy, 298 K (in COC(C)(C)C): -10.7 kcal/mol | solvation free energy, 298 K (in COC(C)=O): -11.1 kcal/mol | solvation free energy, 298 K (in ClC(Cl)(Cl)Cl): -11 kcal/mol | solvation free energy, 298 K (in O): -3.8 kcal/mol | solvation free energy, 298 K (in O=C1CCCCC1): -11.4 kcal/mol

Structure (SMILES): CCCCCCCCCCCC
solvation free energy, 298 K (in CCCCCC): -8.24 kcal/mol | solvation free energy, 298 K (in CN(C)C=O): -6.15 kcal/mol | solvation free energy, 298 K (in OCCOCCO): -4.02 kcal/mol | solvation free energy, 298 K (in OCCOCCOCCO): -4.27 kcal/mol | solvation free energy, 298 K (in OCCOCCOCCOCCO): -4.58 kcal/mol

Structure (SMILES): c1ccc(N=Nc2ccccc2)cc1
solvation free energy, 298 K [1]: -11.2 kcal/mol | solvation free energy, 298 K (in O): -4.82 kcal/mol

Structure (SMILES): CCC(O)(CC)CC
solvation free energy, 298 K (in CCCCCCCC): -5.42 kcal/mol | solvation free energy, 298 K (in CCCCCCCCCC): -5.34 kcal/mol

Structure (SMILES): CCCN(CCC)N=O
solvation free energy, 298 K (in CC(C)CC(C)(C)C): -6.56 kcal/mol

Structure (SMILES): FCCF
solvation free energy, 298 K (in CCCO): -3.64 kcal/mol

Structure (SMILES): COP(=S)(OC)Oc1ccc([N+](=O)[O-])cc1
solvation free energy, 298 K (in O): -7.19 kcal/mol

Structure (SMILES): Nc1ccc2ccccc2c1
solvation free energy, 298 K (in CCCCCC): -8.89 kcal/mol | solvation free energy, 298 K (in CCCCCCCC): -8.96 kcal/mol | solvation free energy, 298 K (in O): -7.47 kcal/mol

Structure (SMILES): C#CCCCCCC
solvation free energy, 298 K (in CN1CCCC1=O): -4.98 kcal/mol | solvation free energy, 298 K (in CN(C)C=O): -4.99 kcal/mol | solvation free energy, 298 K (in CS(C)=O): -4.42 kcal/mol | solvation free energy, 298 K (in N#CCCCCC#N): -4.31 kcal/mol | solvation free energy, 298 K (in NCCO): -3.17 kcal/mol | solvation free energy, 298 K (in O): 0.71 kcal/mol

Structure (SMILES): O=C1CCCO1
solvation free energy, 298 K (in CC(C)CC(C)(C)C): -4.99 kcal/mol

Structure (SMILES): Clc1cc(Cl)c(-c2c(Cl)cccc2Cl)c(Cl)c1
solvation free energy, 298 K (in O): -1.96 kcal/mol

Structure (SMILES): Cc1cc(C)cc(C)c1
solvation free energy, 298 K (in O): -0.77 kcal/mol | solvation free energy, 298 K (in OCCO): -3.76 kcal/mol | solvation free energy, 298 K (in OCCOCCO): -4.65 kcal/mol

Structure (SMILES): COC(=O)c1ccccc1O
solvation free energy, 298 K (in Cc1ccc(C)cc1): -7.64 kcal/mol

Structure (SMILES): C=CCO
solvation free energy, 298 K (in CC(=O)N(C)C): -4.69 kcal/mol | solvation free energy, 298 K (in CCCCN(C=O)CCCC): -5.42 kcal/mol | solvation free energy, 298 K (in CNC(C)=O): -5.87 kcal/mol | solvation free energy, 298 K (in O): -5.04 kcal/mol

Structure (SMILES): c1ccc(Cn2ccnc2)cc1
solvation free energy, 298 K (in O): -7.63 kcal/mol

Structure (SMILES): N
solvation free energy, 298 K (in CC(C)=O): -2.02 kcal/mol | solvation free energy, 298 K (in CC(C)CO): -2.54 kcal/mol | solvation free energy, 298 K (in CC(C)O): -2.37 kcal/mol | solvation free energy, 298 K (in CCC(C)=O): -1.94 kcal/mol | solvation free energy, 298 K (in CCCCCCC): -1.27 kcal/mol | solvation free energy, 298 K (in CCCCO): -2.4 kcal/mol | solvation free energy, 298 K (in CCCO): -2.4 kcal/mol | solvation free energy, 298 K (in CCO): -2.65 kcal/mol | solvation free energy, 298 K (in CN1CCCC1=O): -1.85 kcal/mol | solvation free energy, 298 K (in CO): -3.08 kcal/mol | solvation free energy, 298 K (in ClC(Cl)Cl): -2.41 kcal/mol | solvation free energy, 298 K (in Clc1ccccc1): -1.36 kcal/mol | solvation free energy, 298 K (in O): -4.34 kcal/mol

Results, then the compound that gave them:

solvation free energy, 298 K (in O): 0.14 kcal/mol
Structure (SMILES): C=C1C=CC(C(C)C)CCC(C)=CCC1 (configuration not stated)

solvation free energy, 298 K (in O): -3.68 kcal/mol
Structure (SMILES): CCCCCC(=O)CC(=O)CCCCC

solvation free energy, 298 K (in O): 0.78 kcal/mol
Structure (SMILES): CC1CCC2=C1CC1CCC2(C)C1(C)C (configuration not stated)

solvation free energy, 298 K (in C=CCCCCCCC=C): -2.89 kcal/mol | solvation free energy, 298 K (in C=CCCCCCCCCCCCCCC): -2.47 kcal/mol
Structure (SMILES): O=CO

solvation free energy, 298 K (in CCCO): -4.64 kcal/mol
Structure (SMILES): CCC(C)CCC(C)C (configuration not stated)

solvation free energy, 298 K (in O): 0.35 kcal/mol
Structure (SMILES): C=C1C2CCC(C2)C1(C)CCC=C(C)C (configuration not stated)

solvation free energy, 298 K (in O): -4.61 kcal/mol
Structure (SMILES): CC(=O)C1CC1

solvation free energy, 298 K (in CN1CCCC1=O): -2.84 kcal/mol | solvation free energy, 298 K (in CN(C)C=O): -2.93 kcal/mol | solvation free energy, 298 K (in CS(C)=O): -2.72 kcal/mol | solvation free energy, 298 K (in O): 0.54 kcal/mol | solvation free energy, 298 K (in O=CN1CCOCC1): -2.52 kcal/mol
Structure (SMILES): C1=CCCC1

solvation free energy, 298 K (in CCCCCCCCCCCCCCCC): -4.14 kcal/mol | solvation free energy, 298 K (in CCOC(C)=O): -6.66 kcal/mol
Structure (SMILES): CS(C)=O

solvation free energy, 298 K (in O): -5.95 kcal/mol
Structure (SMILES): CNCc1ccc(C)cc1

solvation free energy, 298 K (in O): -4.59 kcal/mol
Structure (SMILES): COC(CCl)(OC)OC

solvation free energy, 298 K (in CCCCCCCC): -4.89 kcal/mol | solvation free energy, 298 K (in CCCCCCCCCC): -4.82 kcal/mol
Structure (SMILES): CCCC(C)CO (configuration not stated)

solvation free energy, 298 K (in O): 4.46 kcal/mol
Structure (SMILES): CC(CC(C)(C)C)CC(C)(C)CC(C)(C)C (configuration not stated)

solvation free energy, 298 K (in O): -11.1 kcal/mol
Structure (SMILES): CCCCP(=O)(CCCC)CCCC

solvation free energy, 298 K (in C=CCCCCCCCCCCCCCC): -3.86 kcal/mol | solvation free energy, 298 K (in O): 0.61 kcal/mol
Structure (SMILES): CC=CC=CC

solvation free energy, 298 K (in O): -2.73 kcal/mol
Structure (SMILES): Clc1cc(Cl)cc(-c2cc(Cl)ccc2Cl)c1

solvation free energy, 298 K (in O): -0.12 kcal/mol
Structure (SMILES): C=C1C=CC2(C(C)C)CC12 (configuration not stated)

solvation free energy, 298 K (in O): -6.13 kcal/mol
Structure (SMILES): CCCCC(=O)O
